Measured values from PubChem BioAssay AID248 (DTP/NCI, 2004).
Several values for one entry are separate records, joined by “and”; a condition that tells them apart may be missing. Equal entries are not always repeated. Toxic doses and inconclusive results are not listed. Cut-off read from the data, not from the text of the source: active = T/C of 150% or more; inactive = T/C below 125%.

Tested on: L1210 leukemia ip in BDF1 mice, survival T/C
Test: NCI In Vivo Anticancer Drug Screen. Data for tumor model L1210 Leukemia (intraperitoneal) in B6D2F1 (BDF1) mice
Details: endpoint: mean survival time, higher = longer survival
In short: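 In this screen, tumor-bearing mice given compound are compared to those given vehicle, and their survival values are reported as a treated-to-control quotient.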

[1] = dose: 100.0 mg/kg/injection, schedule: Q01DX009 (ip), vehicle: Klucel (hydroxypropylcellulose) (HPC)
[2] = dose: 200.0 mg/kg/injection, schedule: Q01DX009 (ip), vehicle: Klucel (hydroxypropylcellulose) (HPC)
[3] = dose: 100.0 mg/kg/injection, schedule: Q04DX003 (ip), vehicle: saline with Tween-80
[4] = dose: 200.0 mg/kg/injection, schedule: Q04DX003 (ip), vehicle: saline with Tween-80
[5] = dose: 400.0 mg/kg/injection, schedule: Q04DX003 (ip), vehicle: saline with Tween-80
[6] = dose: 100.0 mg/kg/injection, schedule: Q04DX003 (ip), vehicle: saline
[7] = dose: 200.0 mg/kg/injection, schedule: Q04DX003 (ip), vehicle: saline
[8] = dose: 400.0 mg/kg/injection, schedule: Q04DX003 (ip), vehicle: saline
[9] = dose: 100.0 mg/kg/injection, schedule: Q01DX009 (ip), vehicle: saline with Tween-80
[10] = dose: 200.0 mg/kg/injection, schedule: Q01DX009 (ip), vehicle: saline with Tween-80
[11] = dose: 50.0 mg/kg/injection, schedule: Q01DX009 (ip), vehicle: saline with Tween-80
[12] = dose: 75.0 mg/kg/injection, schedule: Q01DX001 (ip), vehicle: saline

Measured: T/C

C/C=C/C[P+](c1ccccc1)(c1ccccc1)c1ccccc1
inactive: dose: 3.13 mg/kg/injection, schedule: Q01DX009 (ip), vehicle: saline 98 % of control | dose: 6.25 mg/kg/injection, schedule: Q01DX009 (ip), vehicle: saline 110 % of control | dose: 12.5 mg/kg/injection, schedule: Q01DX009 (ip), vehicle: saline with Tween-80 106 % of control | dose: 12.5 mg/kg/injection, schedule: Q01DX009 (ip), vehicle: saline 98 % of control | dose: 15.0 mg/kg/injection, schedule: Q01DX001 (ip), vehicle: saline 101 % of control | dose: 30.0 mg/kg/injection, schedule: Q01DX001 (ip), vehicle: saline 114 % of control

NC(N)=N/N=C(/c1ccccc1)c1ccc(F)cc1
inactive: dose: 6.25 mg/kg/injection, schedule: Q01DX009 (ip), vehicle: carboxymethylcellulose (CMC) 95 % of control | dose: 12.5 mg/kg/injection, schedule: Q01DX009 (ip), vehicle: carboxymethylcellulose (CMC) 97 % of control | dose: 15.0 mg/kg/injection, schedule: Q01DX Z (ip), vehicle: saline 95 % of control | dose: 15.0 mg/kg/injection, schedule: Q01DX Z (oral), vehicle: saline 107 % of control | dose: 20.0 mg/kg/injection, schedule: Q01DX001 (ip), vehicle: other 107 % of control | dose: 20.0 mg/kg/injection, schedule: Q01DX009 (ip), vehicle: carboxymethylcellulose (CMC) 94 % of control | dose: 20.0 mg/kg/injection, schedule: Q01DX009 (ip), vehicle: other 103 % of control | dose: 25.0 mg/kg/injection, schedule: Q01DX009 (ip), vehicle: carboxymethylcellulose (CMC) 103 % of control | dose: 30.0 mg/kg/injection, schedule: Q01DX Z (ip), vehicle: saline 108 % of control | dose: 30.0 mg/kg/injection, schedule: Q01DX Z (oral), vehicle: saline 107 % of control | dose: 40.0 mg/kg/injection, schedule: Q01DX001 (ip), vehicle: other 110 % of control | dose: 40.0 mg/kg/injection, schedule: Q01DX009 (ip), vehicle: carboxymethylcellulose (CMC) 94 % of control | dose: 40.0 mg/kg/injection, schedule: Q01DX009 (ip), vehicle: other 90 % of control | dose: 50.0 mg/kg/injection, schedule: Q01DX009 (ip), vehicle: carboxymethylcellulose (CMC) 115 % of control | dose: 80.0 mg/kg/injection, schedule: Q01DX009 (ip), vehicle: carboxymethylcellulose (CMC) 118 % of control

CCOC(=O)N/N=C(\C)c1ccc(OC)cc1
inactive: [1] 98 % of control | [2] 112 % of control

COc1ccc(C2OC23CC(C)(C)c2ccccc2C3=O)cc1 (configuration not stated)
inactive: [3] 93 % of control | [4] 89 % of control | [5] 94 % of control

Cc1nc(-c2ccccc2)oc1-c1ccccc1
inactive: [6] 92 % of control | [7] 95 % of control | [8] 92 % of control

Nc1ccn(C2OC(CO)C(OC3OC4COC(c5ccccc5)OC4C(O)C3O)C(O)C2O)c(=O)n1 (configuration not stated)
inactive: dose: 22.5 mg/kg/injection, schedule: Q01DX001 (ip), vehicle: carboxymethylcellulose (CMC) 105 % of control | dose: 45.0 mg/kg/injection, schedule: Q01DX001 (ip), vehicle: carboxymethylcellulose (CMC) 100 % of control | dose: 90.0 mg/kg/injection, schedule: Q01DX001 (ip), vehicle: carboxymethylcellulose (CMC) 116 % of control | dose: 180.0 mg/kg/injection, schedule: Q01DX001 (ip), vehicle: carboxymethylcellulose (CMC) 97 % of control

O=C(Nc1cccc2ccccc12)OCCCBr
inactive: [9] 90 % of control | [10] 90 % of control

CC(=O)n1cc(/C=C2\N=C(c3cccc(Cl)c3)OC2=O)c2ccccc21
inactive: [1] 112 % of control | [2] 104 % of control | dose: 400.0 mg/kg/injection, schedule: Q01DX009 (ip), vehicle: Klucel (hydroxypropylcellulose) (HPC) 101 % of control

O=C1SC2(CCCCC2)SC1=O
inactive: [11] 110 % of control | [9] 113 % of control | [3] 110 % of control | [4] 100 % of control

O=C(CCNC(=O)c1ccccc1)Oc1ccccc1
inactive: [6] 93 % of control | [7] 95 % of control | [8] 92 % of control

Cc1ccc(NC(=O)Oc2ccc([N+](=O)[O-])cc2)cc1S(=O)(=O)F
inactive: dose: 100.0 mg/kg/injection, schedule: Q01DX001 (ip), vehicle: saline with Tween-80 100 % of control and 101 % of control | [9] 98 % of control and 101 % of control | dose: 100.0 mg/kg/injection, schedule: Q04DX002 (ip), vehicle: saline with Tween-80 94 % of control and 99 % of control | [3] 98 % of control and 102 % of control | dose: 200.0 mg/kg/injection, schedule: Q01DX001 (ip), vehicle: saline with Tween-80 97 % of control and 100 % of control | [10] 103 % of control and 109 % of control | dose: 200.0 mg/kg/injection, schedule: Q04DX002 (ip), vehicle: saline with Tween-80 100 % of control and 90 % of control | [4] 94 % of control and 102 % of control | dose: 400.0 mg/kg/injection, schedule: Q01DX001 (ip), vehicle: saline with Tween-80 104 % of control and 107 % of control | dose: 400.0 mg/kg/injection, schedule: Q04DX002 (ip), vehicle: saline with Tween-80 96 % of control and 101 % of control | [5] 98 % of control

CC(=O)OC1CCC2(C)C(=CC=C3C2CCC2(C)C3CC(OC(C)=O)C2C(C)C2CCC(C)CN2C(C)=O)C1 (configuration not stated)
inactive: [11] 91 % of control | [9] 91 % of control

C=C(C)COC(=O)Nc1cccc(O)c1
inactive: dose: 100.0 mg/kg/injection, schedule: Q01DX001 (ip), vehicle: saline + alcohol 96 % of control | dose: 200.0 mg/kg/injection, schedule: Q01DX001 (ip), vehicle: saline + alcohol 96 % of control

COc1ccccc1C1CCCC1OS(C)(=O)=O (configuration not stated)
inactive: dose: 75.0 mg/kg/injection, schedule: Q04DX003 (ip), vehicle: saline 103 % of control | dose: 100.0 mg/kg/injection, schedule: Q01DX001 (ip), vehicle: saline 98 % of control | dose: 150.0 mg/kg/injection, schedule: Q04DX003 (ip), vehicle: saline 100 % of control | dose: 200.0 mg/kg/injection, schedule: Q01DX001 (ip), vehicle: saline 107 % of control | dose: 300.0 mg/kg/injection, schedule: Q04DX003 (ip), vehicle: saline 108 % of control | dose: 400.0 mg/kg/injection, schedule: Q01DX001 (ip), vehicle: saline 96 % of control

CCCCCCCCCCOP(OCCCCCCCCCC)Oc1ccccc1
inactive: [6] 102 % of control | [7] 93 % of control | [8] 102 % of control

COc1ccc(/C=N/NC(=O)CNC(=O)Nc2cccc(Cl)c2)cc1
inactive: [11] 87 % of control

CC1(C)CC(N=Cc2ccccc2O)CC(C)(C)N1O.CC1(C)CC(N=Cc2ccccc2O)CC(C)(C)N1O.[Co]
inactive: [3] 89 % of control | [4] 92 % of control

CC1(C)Cc2cccc(C(=O)CCCN3CCC4(CC3)C(=O)NCN4c3ccccc3)c2O1
inactive: dose: 50.0 mg/kg/injection, schedule: Q01DX001 (ip), vehicle: Klucel (hydroxypropylcellulose) (HPC) 100 % of control | dose: 100.0 mg/kg/injection, schedule: Q01DX001 (ip), vehicle: Klucel (hydroxypropylcellulose) (HPC) 102 % of control | dose: 200.0 mg/kg/injection, schedule: Q01DX001 (ip), vehicle: Klucel (hydroxypropylcellulose) (HPC) 93 % of control

CCN(CC)CCCNC(c1ccc(Cl)cc1)C(Cl)(Cl)Cl (configuration not stated)
inactive: [12] 88 % of control

CC(NCCO)C(O)c1ccccc1 (configuration not stated)
inactive: dose: 100.0 mg/kg/injection, schedule: Q01DX009 (ip), vehicle: saline 94 % of control | [6] 95 % of control | dose: 200.0 mg/kg/injection, schedule: Q01DX009 (ip), vehicle: saline 94 % of control | [7] 104 % of control | dose: 400.0 mg/kg/injection, schedule: Q01DX009 (ip), vehicle: saline 103 % of control | [8] 97 % of control

N=C(N)c1ncn(C2CCCC2)c1N
inactive: [12] 106 % of control | dose: 150.0 mg/kg/injection, schedule: Q01DX001 (ip), vehicle: saline 105 % of control

Cc1ccc(N=Nc2ccccn2)cc1
inactive: dose: 100.0 mg/kg/injection, schedule: Q04DX002 (ip), vehicle: Klucel (hydroxypropylcellulose) (HPC) 104 % of control | dose: 200.0 mg/kg/injection, schedule: Q04DX002 (ip), vehicle: Klucel (hydroxypropylcellulose) (HPC) 93 % of control | dose: 400.0 mg/kg/injection, schedule: Q04DX002 (ip), vehicle: Klucel (hydroxypropylcellulose) (HPC) 93 % of control
